What all share (format): cell-based
One assay has as its target T1, BRAF V600E (Homo sapiens, UniProt P15056, V600E).
T1 construct: endogenous C-terminal HiBiT fusion tag on BRAF V600E allele; endogenous in cells; host or cells: A375 clone 1F10 (CRISPR-Cas9 knock-in of the HiBiT tag; parental A375 from ATCC)
Kind of assay: BRAF HiBiT degradation assay, C-terminal HiBiT-tagged BRAF V600E A375 cells (clone 1F10), Nano-Glo HiBiT Lytic assay. The note with it: for Dmax: A-375. In a few lines: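 Degradation is measured as loss of HiBiT signal from BRAF V600E tagged at its native locus in A375 cells. Doses span 1 μM to 0.01 nM in half-log steps, in duplicate. Percent remaining is calculated against DMSO controls after subtracting untagged A375 background, and curve fitting yields DC50 and observed Dmax.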
(In general: HiBiT is a short tag that completes a luciferase, so light tracks the accessible tagged protein.)

The next assay concerns the target T2, BRAF G466V (Homo sapiens, UniProt P15056, G466V).
T2 construct: Horizon Discovery (HCT-116 BRAF−/− cells); host or cells: HCT-116 BRAF−/− cells, clone 8, lentiviral transduction
Put plainly: BRAF HiBiT degradation assay, C-terminal HiBiT-tagged BRAF G466V overexpressed in HCT-116 BRAF−/− cells (clone 8), Nano-Glo HiBiT Lytic assay. Summed up:
(§1)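 First, the stable HiBiT-tagged cells were plated and incubated for 24 h. Next, compound was added in duplicate as an 11-point series with a 1 μM top concentration. Lytic detection followed, with DMSO-treated parental cells used for background. Finally, DC50 and Obs. Dmax relative to DMSO were derived from the % protein remaining curves.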

For another assay, the target named is T3, BRAF G469A (Homo sapiens, UniProt P15056, G469A).
T3 construct: Horizon Discovery (HCT-116 BRAF−/− cells); host or cells: HCT-116 BRAF−/− cells, clone 34, lentiviral transduction
Kind of assay: BRAF HiBiT degradation assay, C-terminal HiBiT-tagged BRAF G469A overexpressed in HCT-116 BRAF−/− cells (clone 34), Nano-Glo HiBiT Lytic assay. In a few lines:
as §1

For the next assay, the target named is T4, BRAF D594G (Homo sapiens, UniProt P15056, D594G).
T4 construct: Horizon Discovery (HCT-116 BRAF−/− cells); host or cells: HCT-116 BRAF−/− cells, clone 63, lentiviral transduction
Kind of assay: BRAF HiBiT degradation assay, C-terminal HiBiT-tagged BRAF D594G overexpressed in HCT-116 BRAF−/− cells (clone 63), Nano-Glo HiBiT Lytic assay. In a few lines:
as §1

Where [1] appears, read: A375 (BRAF V600E), DC50 at 50%: fitted conc. at Y=50.
The mark [2] stands for this setting: A375 (BRAF V600E), percentage protein degraded at maximal compound effect relative to DMSO.
The mark [3] stands for this setting: BRAF G466V, DC50 at 50%: fitted conc. at Y=50.
Setting [4] is: HCT-116, BRAF G466V, percentage protein degraded at maximal compound effect relative to DMSO.
Where [5] appears, read: Class 2, BRAF G469A, DC50 at 50%: fitted conc. at Y=50.
The mark [6] stands for this setting: HCT-116, Class 2, BRAF G469A, percentage protein degraded at maximal compound effect relative to DMSO.
Where [7] appears, read: BRAF D594G, DC50 at 50%: fitted conc. at Y=50.
Setting [8] is: HCT-116, BRAF D594G, percentage protein degraded at maximal compound effect relative to DMSO.
Where [9] appears, read: A375 (BRAF V600E, Class 1), DC50 at 50% degradation.
The mark [10] stands for this setting: A375 (BRAF V600E, Class 1), observed Dmax, % protein degraded relative to DMSO control.
Setting [11] is: BRAF G466V (Class 3), HCT-116 BRAF−/− cells, DC50 at 50% degradation.
Where [12] appears, read: BRAF G466V (Class 3), HCT-116 BRAF−/− cells, observed Dmax relative to DMSO control.
The mark [13] stands for this setting: BRAF G469A (Class 2), HCT-116 BRAF−/− cells, DC50 at 50% degradation.
The mark [14] stands for this setting: BRAF G469A (Class 2), HCT-116 BRAF−/− cells, observed Dmax relative to DMSO control.
[15] abbreviates: BRAF D594G (Class 3), HCT-116 BRAF−/− cells, DC50 at 50% degradation.
Setting [16] is: BRAF D594G (Class 3), HCT-116 BRAF−/− cells, observed Dmax relative to DMSO control.

Each structure is given as a SMILES string. A value given as a limit tells only on which side of the number the result lay.

The results in this text go back to patent US20260317324A1, “BIFUNCTIONAL COMPOUNDS FOR DEGRADING BRAF VIA UBIQUITIN PROTEOSOME PATHWAY” (Nurix Therapeutics, Inc., priority 2023, published 2026).

T4 sequence (P15056 whole entry D594G): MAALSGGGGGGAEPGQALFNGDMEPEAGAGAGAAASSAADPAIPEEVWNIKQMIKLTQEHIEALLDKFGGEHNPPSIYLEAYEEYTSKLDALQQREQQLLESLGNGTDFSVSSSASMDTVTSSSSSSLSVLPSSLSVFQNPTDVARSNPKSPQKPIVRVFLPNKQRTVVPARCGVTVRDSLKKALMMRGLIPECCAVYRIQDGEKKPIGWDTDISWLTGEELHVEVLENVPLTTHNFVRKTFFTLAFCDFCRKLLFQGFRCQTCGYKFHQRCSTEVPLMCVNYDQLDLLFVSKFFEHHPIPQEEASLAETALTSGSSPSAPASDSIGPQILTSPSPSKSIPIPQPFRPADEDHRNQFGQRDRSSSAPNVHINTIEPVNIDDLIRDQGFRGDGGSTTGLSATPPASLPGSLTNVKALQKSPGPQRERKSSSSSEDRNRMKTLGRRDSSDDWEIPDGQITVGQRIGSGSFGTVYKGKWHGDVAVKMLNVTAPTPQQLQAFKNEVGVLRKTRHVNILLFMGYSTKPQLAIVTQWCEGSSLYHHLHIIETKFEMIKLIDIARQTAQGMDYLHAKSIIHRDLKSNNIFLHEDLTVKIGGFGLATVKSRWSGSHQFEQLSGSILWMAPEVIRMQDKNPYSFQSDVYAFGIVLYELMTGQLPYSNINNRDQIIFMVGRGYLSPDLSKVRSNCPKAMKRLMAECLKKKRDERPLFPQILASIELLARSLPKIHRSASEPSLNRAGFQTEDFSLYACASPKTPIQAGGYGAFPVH
T3 sequence (P15056 whole entry G469A): as the sequence (P15056 whole entry D594G) above, with G469A, G594D counted along it
T1 sequence (P15056 whole entry V600E, the tested form may be a part): as the sequence (P15056 whole entry D594G) above, with G594D, V600E counted along it
T2 sequence (P15056 whole entry G466V): as the sequence (P15056 whole entry D594G) above, with G466V, G594D counted along it

As a reminder, the DC50 is the concentration at which degradation of the target reaches its halfway point. A lower DC50 goes with degradation at low concentration. The term Dmax denotes the greatest extent of degradation seen. High values mean a fuller loss of target, low ones a partial loss of target. Consider `CCCS(=O)(=O)Nc1cccc(-c2nc(C(C)(C)C)sc2-c2ccnc(Nc3ccc(C4CCN(CC5CCN(c6ccc(C(=O)NC7CCC(=O)NC7=O)cc6)CC5)CC4)cc3)n2)c1F` (racemic) [Compound 171, Rac-4-{4-[(4-{4-[(4-{2-tert-butyl-4-[2-fluoro-3-(propane-1-sulfonamido)phenyl]-1,3-thiazol-5-yl}pyrimidin-2-yl)amino]phenyl}piperidin-1-yl)methyl]piperidin-1-yl}-N-[(3R)-2,6-dioxopiperidin-3-yl]benzamide], for which the DC50 on BRAF V600E (setting [1]) is 50 to 500 nM; on BRAF G466V (setting [3]) it was over 500 nM; at BRAF G469A (setting [5]) it was over 500 nM; on BRAF D594G (setting [7]) it was over 500 nM. For the same compound, the Dmax on BRAF V600E (setting [2]) was 30 to 70%; on BRAF G466V (setting [4]) it was under 30%; on BRAF G469A (setting [6]) it was under 30%; at BRAF D594G (setting [8]), under 30%.
On to `CCN(C)S(=O)(=O)Nc1cccc(-c2nc(C)sc2-c2ccnc(Nc3ccc(N4CCN(CC5CCN(c6ccc(C7CCC(=O)NC7=O)cn6)CC5)CC4)cn3)n2)c1F` (racemic) [Compound 43, Rac-(3S)-3-{6-[4-({4-[6-({4-[4-(3-{[ethyl(methyl)sulfamoyl]amino}-2-fluorophenyl)-2-methyl-1,3-thiazol-5-yl]pyrimidin-2-yl}amino)pyridin-3-yl]piperazin-1-yl}methyl)piperidin-1-yl]pyridin-3-yl}piperidine-2,6-dione], for which the DC50 was under 10 nM on BRAF V600E (setting [1]), 10 to 50 nM at BRAF G466V (setting [3]), 10 to 50 nM on BRAF G469A (setting [5]) and under 10 nM at BRAF D594G (setting [7]). The Dmax is over 70% at BRAF V600E (setting [2]), 30 to 70% at BRAF G466V (setting [4]), 30 to 70% on BRAF G469A (setting [6]) and 30 to 70% on BRAF D594G (setting [8]).
For the compound `CCCS(=O)(=O)Nc1cccc(-c2cn(-c3ccc(N4CCN(CC5CCN(c6ccc([C@@H]7CCC(=O)NC7=O)cc6)CC5)CC4)cc3)nc2-c2ccncc2)c1F` [Compound 10, N-{3-[1-(4-{4-[(1-{4-[(3S)-2,6-dioxopiperidin-3-yl]phenyl}piperidin-4-yl)methyl]piperazin-1-yl}phenyl)-3-(pyridin-4-yl)-1H-pyrazol-4-yl]-2-fluorophenyl}propane-1-sulfonamide], the DC50 at BRAF V600E (setting [1]) was 10 to 50 nM; at BRAF G466V (setting [3]), 10 to 50 nM; on BRAF G469A (setting [5]), over 500 nM; on BRAF D594G (setting [7]), over 500 nM. The Dmax was over 70% at BRAF V600E (setting [2]), 30 to 70% on BRAF G466V (setting [4]), 30 to 70% at BRAF G469A (setting [6]) and 30 to 70% at BRAF D594G (setting [8]).
For `CCCS(=O)(=O)Nc1cc(Cl)cc(-c2cn(-c3ccc(N4CCN(CC5CCN(c6ccc(C7CCC(=O)NC7=O)cn6)CC5)[C@H](C)C4)cc3)nc2-c2ccncc2)c1F` (mixture of isomers) [Compound 276, N-[5-chloro-3-(1-{4-[(3R)-4-[(1-{5-[(3RS)-2,6-dioxopiperidin-3-yl]pyridin-2-yl}piperidin-4-yl)methyl]-3-methylpiperazin-1-yl]phenyl}-3-(pyridin-4-yl)-1H-pyrazol-4-yl)-2-fluorophenyl]propane-1-sulfonamide], the DC50 on BRAF V600E (setting [9]), on BRAF G466V (setting [11]), on BRAF G469A (setting [13]) and at BRAF D594G (setting [15]) was under 10 nM throughout. In addition, the greatest degradation seen (Dmax) is over 70% at BRAF V600E (setting [10]), over 70% on BRAF G466V (setting [12]), over 70% at BRAF G469A (setting [14]) and 30 to 70% at BRAF D594G (setting [16]).
Regarding `CCCS(=O)(=O)Nc1cccc(-c2nc(C(C)(C)C)sc2-c2ccnc(Nc3ccc(C4CCN(C(=O)C5CCN(c6cc(C7CCC(=O)NC7=O)ccn6)CC5)CC4)cc3)n2)c1F` (racemic) [Compound 163, Rac-N-(3-{2-tert-butyl-5-[2-({4-[1-(1-{4-[(3R)-2,6-dioxopiperidin-3-yl]pyridin-2-yl}piperidine-4-carbonyl)piperidin-4-yl]phenyl}amino)pyrimidin-4-yl]-1,3-thiazol-4-yl}-2-fluorophenyl)propane-1-sulfonamide], the DC50 is 50 to 500 nM at BRAF V600E (setting [1]), over 500 nM at BRAF G466V (setting [3]), over 500 nM at BRAF G469A (setting [5]) and over 500 nM on BRAF D594G (setting [7]). Also, the greatest degradation seen (Dmax) on BRAF V600E (setting [2]) is 30 to 70%; at BRAF G466V (setting [4]), under 30%; at BRAF G469A (setting [6]), under 30%; on BRAF D594G (setting [8]) it was under 30%.
For the compound `O=C1CC[C@H](c2ccc(N3CCC(CN4CCN(c5cc(F)c(-n6cc(-c7cc(Cl)cc(NS(=O)(=O)N8CCCC8)c7F)c(-c7ccncc7)n6)cc5F)CC4)CC3)cc2)C(=O)N1` [Compound 353, N-{5-chloro-3-[1-(4-{4-[(1-{4-[(3R)-2,6-dioxopiperidin-3-yl]phenyl}piperidin-4-yl)methyl]piperazin-1-yl}-2,5-difluorophenyl)-3-(pyridin-4-yl)-1H-pyrazol-4-yl]-2-fluorophenyl}pyrrolidine-1-sulfonamide], the DC50 at BRAF V600E (setting [9]), on BRAF G466V (setting [11]), at BRAF G469A (setting [13]) and on BRAF D594G (setting [15]) was under 10 nM throughout. In addition, the Dmax on BRAF V600E (setting [10]), on BRAF G466V (setting [12]), at BRAF G469A (setting [14]) and on BRAF D594G (setting [16]) was over 70% each time.
With `CCN(C)S(=O)(=O)Nc1cc(F)cc(-c2cn(-c3ccc(N4CCN(CC5CCN(c6ccc([C@H]7CCC(=O)NC7=O)cc6)CC5)CC4)cc3)nc2-c2ccncc2)c1F` [Compound 377, (3R)-3-(4-{4-[(4-{4-[4-(3-{[ethyl(methyl)sulfamoyl]amino}-2,5-difluorophenyl)-3-(pyridin-4-yl)-1H-pyrazol-1-yl]phenyl}piperazin-1-yl)methyl]piperidin-1-yl}phenyl)piperidine-2,6-dione], the DC50 on BRAF V600E (setting [9]) is 10 to 50 nM; on BRAF G466V (setting [11]), 10 to 50 nM; at BRAF G469A (setting [13]), under 10 nM; on BRAF D594G (setting [15]) it was 10 to 50 nM. In addition, the maximal degradation (Dmax) on BRAF V600E (setting [10]) is over 70%; on BRAF G466V (setting [12]), over 70%; on BRAF G469A (setting [14]), 30 to 70%; on BRAF D594G (setting [16]), 30 to 70%.
As for `O=C1CC[C@H](c2ccc(N3CCC(CN4CCN(c5ccc(-n6cc(-c7cc(Cl)cc(NS(=O)(=O)N8CCCC8)c7F)c(-c7ccncc7)n6)cc5)CC4)CC3)cc2F)C(=O)N1` [Compound 344, N-{5-chloro-3-[1-(4-{4-[(1-{4-[(3R)-2,6-dioxopiperidin-3-yl]-3-fluorophenyl}piperidin-4-yl)methyl]piperazin-1-yl}phenyl)-3-(pyridin-4-yl)-1H-pyrazol-4-yl]-2-fluorophenyl}pyrrolidine-1-sulfonamide], the DC50 on BRAF V600E (setting [9]), on BRAF G466V (setting [11]), on BRAF G469A (setting [13]) and on BRAF D594G (setting [15]) was under 10 nM throughout. In addition, the Dmax at BRAF V600E (setting [10]), at BRAF G466V (setting [12]), at BRAF G469A (setting [14]) and on BRAF D594G (setting [16]) was over 70% each time.
Regarding `CCN(C)S(=O)(=O)Nc1cccc(-c2nc(C(C)(C)C)sc2-c2ccnc(Nc3ccc(N4CCN(C(=O)C5CCN(c6ccc(C7CCC(=O)NC7=O)cc6)CC5)CC4)cn3)n2)c1F` (racemic) [Compound 36, Rac-(3S)-3-[4-(4-{4-[6-({4-[2-tert-butyl-4-(3-{[ethyl(methyl)sulfamoyl]amino}-2-fluorophenyl)-1,3-thiazol-5-yl]pyrimidin-2-yl}amino)pyridin-3-yl]piperazine-1-carbonyl}piperidin-1-yl)phenyl]piperidine-2,6-dione], the half-maximal degradation concentration (DC50) at BRAF V600E (setting [1]) is under 10 nM; on BRAF G466V (setting [3]) it was over 500 nM; on BRAF G469A (setting [5]) it was 10 to 50 nM; at BRAF D594G (setting [7]), over 500 nM. Further, the Dmax was over 70% on BRAF V600E (setting [2]), under 30% at BRAF G466V (setting [4]), 30 to 70% at BRAF G469A (setting [6]) and 30 to 70% on BRAF D594G (setting [8]).
